Experimental data as given in patent US11466034B2, “Compound functioning as bromodomain protein inhibitor, and composition” (Betta Pharmaceuticals Co., Ltd., priority 2017, dated 2022).

Tests used:
[1] = Stability test of Compound 19 crystalline form I (XRD); assay type: physicochemical
[2] = Pharmacokinetic assay in male SD rats, single gavage; assay type: in vivo; conditions: Sprague-Dawley (SD), rat, plasma
Description: Male SD rats were offered by Beijing Vital River Laboratory Animal Technology Co., Ltd., the rats were divided into groups of 3, and the suspension of the test sample (5 mg/kg-20 mg/kg) was given by single gavage. The animals were fasted overnight before the experiment, the fasting time was from 10 hours before the administration to 4 hours after the administration. Blood was collected at 0.25, 0.5, 1, 2, 4, 7, and 24 hours after administration. Blood was collected from fundus venous plexus, and placed in EDTA-K2 anticoagulation tube. The sample was centrifuged at 4° C. and 4000 rpm for 10 min, the plasma was transferred into centrifuge tubes and the compound to be test was extracted by protein precipitation, the extract was analyzed by LC-MS/MS.

BRD4(D1) = BRD4(D1) (Homo sapiens (Human), UniProt O60885); test: Inhibitory activity against BRD4(D1), HTRF assay; assay type: binding
Description: (§1) (+)-JQ1 was used as comparison compound, to evaluated the inhibitory activity of compounds of the invention against BRD4(D1) and BRD4(D2) in vitro.
(§2) The assays of BRD4 (D1) and BRD4 (D2) were conducted in a 384-well polystyrene plate. The test compounds were first serially diluted in DMSO and the test compound/DMSO were transferred to 384-well plates. The final concentration of DMSO in the assay was 0.1%. 2 volumes of protein/peptide mixture were added into 384-well plates, then 2 volumes of assay mixture were added, and shake for 30 s. The plate was incubated at room temperature for 2 h. Then the HTRF signal on EnVision was readed.
(§3) Use equation (1) to fit the date in Excel to obtain the value of the inhibition rate. Inhibition rate (%)=(maximum value−signal value)/(maximum value−minimum value)*100 Equation(1):
(§4) IC50 determination was performed by fitting the data using GraphPad Prism 5.0 software and equation (2). Y=bottom+(Top−bottom)/(1+10^((Log IC50−X)*HillSlope)); Equation(2): wherein, Y represents the percentage of inhibition (%); X represents the concentration of test compounds.
(§5) The IC50 data of the examples were provided in the following table, wherein, A stands for IC50<100 nM; B stands for IC50 is 100-300 nM; C stands for IC50>300 nM.

BRD4(D2) = BRD4(D2) (Homo sapiens (Human), UniProt O60885); test: Inhibitory activity against BRD4(D2), HTRF assay; assay type: binding
Description: as §1, §2, §3, §4, §5

Row | AUC(0-t) ([2]; oral dose 10 mg/kg) [ng·h/mL] | Cmax ([2]; oral dose 10 mg/kg) [ng/mL] | half-life ([2]; oral dose 10 mg/kg) [h] | IC50 (BRD4(D1); numeric values) [nM] | IC50 (BRD4(D2); numeric values) [nM] | IC50 (BRD4(D1); class symbols) [nM] | IC50 (BRD4(D2); class symbols) [nM] | Compound | further results
1 | – | – | – | – | – | – | – | Cc1nc2ncc(-c3cn(C)c(=O)c4[nH]ccc34)nc2n1Cc1ccc(C(F)(F)F)cc1 [Crystalline Form I of compound 19, 6-methyl-4-(2-methyl-1-(4-(trifluoromethyl)benzyl)-1H-imidazo[4,5-b]pyrazin-6-yl)-1H-pyrrolo[2,3-c]pyridin-7(6H)-one] | solid form stability (XRD) ([1]; 25° C.-60% RH for 10 days): no solid form change; solid form stability (XRD) ([1]; 40° C.-75% RH for 14 days): no solid form change; solid form stability (XRD) ([1]; dried at 80° C. for 24 hours): no solid form change
2 | 2290 | 224 | 3.4 | – | – | – | – | Cc1nc2ncc(-c3cn(C)c(=O)c4[nH]ccc34)nc2n1Cc1ccc(Cl)cc1 [Example 18, 4-(1-(4-chlorobenzyl)-2-methyl-1H-imidazo[4,5-b]pyrazin-6-yl)-6-methyl-1H-pyrrolo[2,3-c]pyridin-7(6H)-one] | –
3 | 9430 | 730 | 4.5 | 9.1 | 1.6 | – | – | Cc1nc2ncc(-c3cn(C)c(=O)c4[nH]ccc34)nc2n1Cc1ccc(C(F)(F)F)cc1 [Example 19, 6-methyl-4-(2-methyl-1-(4-(trifluoromethyl)benzyl)-1H-imidazo[4,5-b]pyrazin-6-yl)-1H-pyrrolo[2,3-c]pyridin-7(6H)-one] | –
4 | 2830 | 407 | 3.3 | – | – | < 100 | < 100 | Cc1nc2ncc(-c3cn(C)c(=O)c4[nH]ccc34)nc2n1Cc1cccc(C(F)(F)F)c1 [Example 23, 4-(1-(3-trifluoromethylbenzyl)-2-methyl-1H-imidazo[4,5-b]pyrazin-6-yl)-6-methyl-1H-pyrrolo[2,3-c]pyridin-7(6H)-one] | –
5 | – | – | – | – | – | < 100 | < 100 | Cc1nc2ncc(-c3cn(C)c(=O)c4[nH]ccc34)nc2n1Cc1cc(F)cc(C(F)(F)F)c1 [Example 25, 4-(1-(3-fluoro-5-trifluoromethylbenzyl)-2-methyl-1H-imidazo[4,5-b]pyrazin-6-yl)-6-methyl-1H-pyrrolo[2,3-c]pyridin-7(6H)-one] | AUC(0-t) ([2]; oral dose 20 mg/kg): 13500 ng·h/mL; Cmax ([2]; oral dose 20 mg/kg): 1230 ng/mL; half-life ([2]; oral dose 20 mg/kg): 12.1 h
6 | 8500 | 1000 | 3.8 | – | – | < 100 | < 100 | Cc1nc2ncc(-c3cn(C)c(=O)c4[nH]ccc34)nc2n1Cc1ccc(Cl)c(C(F)(F)F)c1 [Example 27, 4-(1-(3-trifluoromethyl-4-chlorobenzyl)-2-methyl-1H-imidazo[4,5-b]pyrazin-6-yl)-6-methyl-1H-pyrrolo[2,3-c]pyridin-7(6H)-one] | –
7 | 24000 | 1700 | 4.1 | 21.2 | 7.9 | – | – | Cn1cc(-c2cnc3cnn(Cc4ccc(Cl)cc4)c3c2)c2cc[nH]c2c1=O [Example 39, 4-(1-(4-chlorobenzyl)-1H-pyrazolo[4,3-b]pyridin-6-yl)-6-methyl-1,6-dihydro-7H-pyrrolo[2,3-c]pyridin-7-one] | –
8 | – | – | – | – | – | < 100 | < 100 | CCS(=O)(=O)Nc1cc(-c2cn(C)c(=O)c3[nH]ccc23)cc2c1nc(C)n2Cc1ccc(F)cc1Cl [Example 57, N-(1-(2-chloro-4-fluorobenzyl)-2-methyl-6-(6-methyl-7-oxo-6,7-dihydro-1H-pyrrolo[2,3-c]pyridin-4-yl)-1H-benzo[d]imidazol-4-yl)ethanesulfonamide] | –
9 | 5100 | 1960 | 2.3 | 1.6 | 0.5 | – | – | CCS(=O)(=O)Nc1cc(-c2cn(C)c(=O)c3[nH]ccc23)nc2c1ncn2Cc1ccc(C(F)(F)F)cc1 [Example 58, N-(5-(6-methyl-7-oxo-6,7-dihydro-1H-pyrrolo[2,3-c]pyridin-4-yl)-3-(4-(trifluoromethyl)benzyl)-3H-imidazo[4,5-b]pyridin-7-yl)ethanesulfonamide] | –
10 | – | – | – | 1.2 | 0.5 | – | – | CCS(=O)(=O)Nc1cc(-c2cn(C)c(=O)c3[nH]ccc23)nc2c1ncn2Cc1ccc(F)cc1F [Example 59, N-(3-(2,4-difluorobenzyl)-5-(6-methyl-7-oxo-6,7-dihydro-1H-pyrrolo[2,3-c]pyridin-4-yl)-3H-imidazo[4,5-b]pyridin-7-yl)ethanesulfonamide] | AUC(0-t) ([2]; oral dose 5 mg/kg): 10200 ng·h/mL; Cmax ([2]; oral dose 5 mg/kg): 3290 ng/mL; half-life ([2]; oral dose 5 mg/kg): 2.3 h
11 | – | – | – | – | – | 100 to 300 | 100 to 300 | CCS(=O)(=O)Nc1cc(-c2cn(C)c(=O)c3[nH]ccc23)nc2c1ncn2C(C)c1ccc(Cl)cc1 (stereo not shown) [Example 60, N-(3-(1-(4-chlorophenyl)ethyl)-5-(6-methyl-7-oxo-6,7-dihydro-1H-pyrrolo[2,3-c]pyridin-4-yl)-3H-imidazo[4,5-b]pyridin-7-yl)ethanesulfonamide] | –
12 | – | – | – | – | – | < 100 | < 100 | CCS(=O)(=O)Nc1cc(-c2cn(C)c(=O)c3[nH]ccc23)nc2c1ncn2Cc1cc(C(F)(F)F)ccc1F [Example 61, N-(3-(2-fluoro-5-(trifluoromethyl)benzyl)-5-(6-methyl-7-oxo-6,7-dihydro-H-pyrrolo[2,3-c]pyridin-4-yl)-3H-imidazo[4,5-b]pyridin-7-yl)ethanesulfonamide] | –
13 | – | – | – | 1.3 | 1.2 | – | – | CCS(=O)(=O)Nc1cc(-c2cn(C)c(=O)c3[nH]ccc23)nc2c1ncn2Cc1cc(F)cc(F)c1 [Example 62, N-(3-(3,5-difluorobenzyl)-5-(6-methyl-7-oxo-6,7-dihydro-H-pyrrolo[2,3-c]pyridin-4-yl)-3H-imidazo[4,5-b]pyridin-7-yl)ethanesulfonamide] | –
14 | – | – | – | – | – | < 100 | < 100 | CCS(=O)(=O)Nc1cc(-c2cn(C)c(=O)c3[nH]ccc23)nc2c1ncn2Cc1ccccc1C(F)(F)F [Example 63, N-(5-(6-methyl-7-oxo-6,7-dihydro-H-pyrrolo[2,3-c]pyridin-4-yl)-3-(2-(trifluoromethyl)benzyl)-3H-imidazo[4,5-b]pyridin-7-yl)ethanesulfonamide] | –
15 | – | – | – | 1.1 | 0.5 | – | – | CCS(=O)(=O)Nc1cc(-c2cn(C)c(=O)c3[nH]ccc23)nc2c1nc(C)n2Cc1ccc(F)cc1F [Example 64, N-(3-(2,4-difluorobenzyl)-2-methyl-5-(6-methyl-7-oxo-6,7-dihydro-1H-pyrrolo[2,3-c]pyridin-4-yl)-3H-imidazo[4,5-b]pyridin-7-yl)ethanesulfonamide] | AUC(0-t) ([2]; oral dose 6.7 mg/kg): 5590 ng·h/mL; Cmax ([2]; oral dose 6.7 mg/kg): 1480 ng/mL; half-life ([2]; oral dose 6.7 mg/kg): 3.5 h
16 | – | – | – | – | – | < 100 | < 100 | CCS(=O)(=O)Nc1cc(-c2cn(C)c(=O)c3[nH]ccc23)nc2c1nc(C)n2Cc1ccc(C(F)(F)F)cc1 [Example 65, N-(2-methyl-5-(6-methyl-7-oxo-6,7-dihydro-1H-pyrrolo[2,3-c]pyridin-4-yl)-3-(4-(trifluoromethyl)benzyl)-3H-imidazo[4,5-b]pyridin-7-yl)ethanesulfonamide] | –
17 | – | – | – | – | – | < 100 | < 100 | CCS(=O)(=O)Nc1cc(-c2cn(C)c(=O)c3[nH]ccc23)nc2c1nc(C)n2Cc1ccccc1C(F)(F)F [Example 66, N-(2-methyl-5-(6-methyl-7-oxo-6,7-dihydro-1H-pyrrolo[2,3-c]pyridin-4-yl)-3-(2-(trifluoromethyl)benzyl)-3H-imidazo[4,5-b]pyridin-7-yl)ethanesulfonamide] | –
18 | – | – | – | – | – | < 100 | < 100 | CCS(=O)(=O)Nc1cc(-c2cn(C)c(=O)c3[nH]ccc23)nc2c1nc(C)n2Cc1cc(F)cc(F)c1 [Example 67, N-(3-(3,5-difluorobenzyl)-2-methyl-5-(6-methyl-7-oxo-6,7-dihydro-H-pyrrolo[2,3-c]pyridin-4-yl)-3H-imidazo[4,5-b]pyridin-7-yl)ethanesulfonamide] | –
19 | – | – | – | – | – | < 100 | < 100 | CCS(=O)(=O)Nc1cc(-c2cn(C)c(=O)c3[nH]ccc23)nc2c1nc(C)n2Cc1c(C)cccc1C [Example 68, N-(3-(2,6-dimethylbenzyl)-2-methyl-5-(6-methyl-7-oxo-6,7-dihydro-1H-pyrrolo[2,3-c]pyridin-4-yl)-3H-imidazo[4,5-b]pyridin-7-yl)ethanesulfonamide] | –
